Assay results: patent US20240368158A1, “KINASE MODULATORS, COMPOSITIONS COMPRISING THE KINASE MODULATOR, AND METHODS OF USING THE SAME” (BIOFRONT LTD, priority 2021, published 2024)

What was measured:
HPK1 = target: T1, HPK1 (Homo sapiens, UniProt Q92918); assay: HPK1 enzyme inhibition assay (ADP-Glo); type: biochemical; conditions: MBP substrate, ATP
T1 construct: purchased Signal Chem M23-11G-10
T1 sequence (Q92918 1-346 limits assumed): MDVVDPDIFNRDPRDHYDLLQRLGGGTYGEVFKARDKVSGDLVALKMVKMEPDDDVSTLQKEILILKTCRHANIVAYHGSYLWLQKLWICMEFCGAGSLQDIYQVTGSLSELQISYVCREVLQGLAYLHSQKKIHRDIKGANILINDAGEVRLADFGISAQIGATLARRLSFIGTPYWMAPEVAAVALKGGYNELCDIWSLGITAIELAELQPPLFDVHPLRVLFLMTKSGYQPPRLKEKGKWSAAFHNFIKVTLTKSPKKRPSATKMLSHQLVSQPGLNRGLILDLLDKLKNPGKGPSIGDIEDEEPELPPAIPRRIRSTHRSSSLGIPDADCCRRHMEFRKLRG

[1] = system: HPK1 p-SLP-76 in Jurkat cells; assay: HPK1 p-SLP-76 inhibition assay in Jurkat cells (HTRF); type: cell-based; conditions: Homo sapiens, 4 h compound, anti-CD3 stimulation 20 min
FLT3-ITD = target: T2, FLT3-ITD (Homo sapiens, UniProt P36888); assay: FLT3-ITD enzyme inhibition assay (HTRF KinEASE-TK); type: biochemical; conditions: FLT3-ITD protein, ATP 15 μM
T2 construct: The FLT3-ITD protein was purchased from Invitrogen (PV6190)
T2 sequence (P36888 1-993): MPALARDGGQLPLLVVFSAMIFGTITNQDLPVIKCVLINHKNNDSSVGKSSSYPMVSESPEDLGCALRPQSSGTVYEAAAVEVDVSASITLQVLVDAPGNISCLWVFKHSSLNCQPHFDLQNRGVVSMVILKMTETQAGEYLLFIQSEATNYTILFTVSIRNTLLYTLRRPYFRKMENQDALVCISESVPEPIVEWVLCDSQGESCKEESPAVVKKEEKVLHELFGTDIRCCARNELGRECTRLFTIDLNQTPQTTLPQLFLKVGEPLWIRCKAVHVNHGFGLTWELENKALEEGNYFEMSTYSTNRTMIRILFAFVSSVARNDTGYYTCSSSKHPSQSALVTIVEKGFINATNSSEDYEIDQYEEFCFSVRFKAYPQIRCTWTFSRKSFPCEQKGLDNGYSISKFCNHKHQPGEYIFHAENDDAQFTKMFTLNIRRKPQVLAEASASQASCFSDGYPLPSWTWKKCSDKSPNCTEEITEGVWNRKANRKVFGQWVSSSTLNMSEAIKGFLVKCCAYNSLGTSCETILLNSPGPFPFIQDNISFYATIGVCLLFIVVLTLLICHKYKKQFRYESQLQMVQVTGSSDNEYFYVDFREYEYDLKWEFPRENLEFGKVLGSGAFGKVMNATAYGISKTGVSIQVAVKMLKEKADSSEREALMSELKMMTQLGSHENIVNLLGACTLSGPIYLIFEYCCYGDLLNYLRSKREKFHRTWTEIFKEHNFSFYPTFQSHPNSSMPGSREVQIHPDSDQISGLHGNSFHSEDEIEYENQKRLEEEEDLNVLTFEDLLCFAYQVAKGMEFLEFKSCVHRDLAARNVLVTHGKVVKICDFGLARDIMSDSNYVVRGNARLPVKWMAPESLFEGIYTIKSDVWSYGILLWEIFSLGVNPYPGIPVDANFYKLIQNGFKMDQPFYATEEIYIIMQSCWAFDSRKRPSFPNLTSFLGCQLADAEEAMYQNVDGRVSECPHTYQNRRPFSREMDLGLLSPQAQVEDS
Experimental: The compound was dissolved in 100% DMSO at the concentration of 10 mM. The FLT3-ITD protein was purchased from Invitrogen (PV6190). 5 μL per well of 2×FLT3-ITD protein was added to assay plate containing the test compound, centrifuged at 1000 rpm for 1 minute, and then incubated at 25° C. for 15 minutes. HTRF KinEASE-TK kit was purchased from Cisbio (62TK0PEC) and ATP was purchased from Thermo Fisher Scientific (R0441). TK-Substrate-biotin and ATP were added 5 μL per well mixture of 2×TK-Substrate-biotin (final conc. is […]) and ATP (final conc. is 15 μM), centrifuged at 1000 rpm for 1 minute, then incubated at 25° C. for 60 minutes. Then added 10 μL of detection buffer (0.25×TK-antibody Eu3+-cryptate, 0.125 μM streptavidine-XL 665) to the assay plate and centrifuged at 1000 rpm for 1 minute then incubated at 25° C. for 60 minutes and 4° C. incubated for overnight, the product was determined. Based on the results, the IC50 value of the compound was calculated.

IC50 (HPK1)	IC50 [1]	IC50 (FLT3-ITD)	Compound
100 to 1000 nM	> 10000 nM	10 to 100 nM	CCc1c[nH]c2ncc(-c3nc(N4CCNCC4=O)sc3C)c(Cl)c12 [Example 20, 1-(4-(4-chloro-3-ethyl-1H-pyrrolo[2,3-b]pyridin-5-yl)-5-methylthiazol-2-yl)piperazin-2-one]
≤ 10 nM	300 to 3000 nM	≤ 10 nM	CCc1c[nH]c2ncc(-c3cccc(N4CCN(C(=O)CNC(=O)[C@@H](N)C(C)C)CC4=O)c3)c(Cl)c12 [Example 44, (S)-2-amino-N-(2-(4-(3-(4-chloro-3-ethyl-1H-pyrrolo[2,3-b]pyridin-5-yl)phenyl)-3-oxopiperazin-1-yl)-2-oxoethyl)-3-methylbutanamide]
≤ 10 nM	> 10000 nM	≤ 10 nM	CCc1c[nH]c2ncc(-c3cccc(N4CCN(C(=O)COc5ccc(C[C@@H](N)C(=O)O)cc5)CC4=O)c3)c(Cl)c12 [Example 45, (R)-2-amino-3-(4-(2-(4-(3-(4-chloro-3-ethyl-1H-pyrrolo[2,3-b]pyridin-5-yl)phenyl)-3-oxopiperazin-1-yl)-2-oxoethoxy)phenyl)propanoic acid]
≤ 10 nM	> 10000 nM	≤ 10 nM	CCc1c[nH]c2ncc(-c3cccc(N4CCN(C(=O)CCCO[C@@H]5O[C@H](CO)[C@@H](O)[C@H](O)[C@H]5O)CC4=O)c3)c(Cl)c12 [Example 48, 1-(3-(4-chloro-3-ethyl-1H-pyrrolo[2,3-b]pyridin-5-yl)phenyl)-4-(4-(((2R,3R,4S,5S,6R)-3,4,5-trihydroxy-6-(hydroxymethyl)tetrahydro-2H-pyran-2-yl)oxy)butanoyl)piperazin-2-one]
≤ 10 nM	300 to 3000 nM	≤ 10 nM	CS(=O)(=O)N1CCN(c2cccc(-c3cnc4[nH]cc(C5CC5)c4c3Cl)c2)C(=O)C1 [Example 53, 1-(3-(4-chloro-3-cyclopropyl-1H-pyrrolo[2,3-b]pyridin-5-yl)phenyl)-4-(methylsulfonyl)piperazin-2-one]

More lines, now with the values behind:

Compound	IC50 (HPK1)	IC50 [1]	IC50 (FLT3-ITD)
O=C1CNCCN1c1cccc(-c2cnc3[nH]cc(C#Cc4ccccn4)c3c2Cl)c1 [Example 7, 1-(3-(4-chloro-3-(pyridin-2-ylethynyl)-1H-pyrrolo[2,3-b]pyridin-5-yl)phenyl) piperazin-2-one]	10 to 100 nM	3000 to 10000 nM	10 to 100 nM
CCc1c[nH]c2ncc(-c3cccc(N4CCN(C(=O)COC)CC4=O)c3)c(Cl)c12 [Example 25, 1-(3-(4-chloro-3-ethyl-1H-pyrrolo[2,3-b]pyridin-5-yl)phenyl)-4-(2-methoxyacetyl)piperazin-2-one]	≤ 10 nM	≤ 300 nM	≤ 10 nM
CCc1c[nH]c2ncc(-c3cccc(N4CCN(C(=O)[C@@H](N)Cc5ccccc5)CC4=O)c3)c(Cl)c12 [Example 43, 4-(L-phenylalanyl)-1-(3-(4-chloro-3-ethyl-1H-pyrrolo[2,3-b]pyridin-5-yl)phenyl)piperazin-2-one]	≤ 10 nM	3000 to 10000 nM	10 to 100 nM
CCc1c[nH]c2ncc(-c3cccc(N4CCN(C(=O)COc5cccc(C6O[C@H](CO)[C@@H](O)[C@H](O)[C@H]6O)c5)CC4=O)c3)c(Cl)c12 (stereo partly drawn) [Example 50, 1-(3-(4-chloro-3-ethyl-1H-pyrrolo[2,3-b]pyridin-5-yl)phenyl)-4-(2-(3-((3R,4R,5S,6R)-3,4,5-trihydroxy-6-(hydroxymethyl)tetrahydro-2H-pyran-2-yl)phenoxy)acetyl)piperazin-2-one]	≤ 10 nM	300 to 3000 nM	≤ 10 nM
CN(C)CCCS(=O)(=O)N1CCN(c2cccc(-c3cnc4[nH]cc(CC(F)F)c4c3Cl)c2)C(=O)C1 [Example 60, 1-(3-(4-chloro-3-(2,2-difluoroethyl)-1H-pyrrolo[2,3-b]pyridin-5-yl)phenyl)-4-((3-(dimethylamino)propyl)sulfonyl)piperazin-2-one]	≤ 10 nM	300 to 3000 nM	≤ 10 nM
